Test results taken from patent US4027039A (priority 1975, dated 1977).
Where “and” joins values, the source holds several entries; their conditions need not be identical. Equal values may be shown once. Read-outs that look alike come from different tables or passages of the source.

Assays:
[1] = test system: Vaccinia virus; parameters: species or system fertile eggs; settings: various concentrations
[2] = test system: Influenza PR 8 virus; test: Influenza PR 8 in mice, oral; schedule by table; late read day 6 (Table 37), 7 (33, 36), 8 (32, 35, 47), 10 (38); control fraction 18/20 (Table 32), 19/20 (Table 35), else 100%; assay type: in vivo, mouse
[3] = test system: Influenza PR 8 virus; test: Influenza PR 8 in mice, subcutaneous; late read day 6 (Table 37), 8 (Table 47); assay type: in vivo, mouse
[4] = test system: Herpes virus
[5] = test system: Vaccinia virus; assay type: in vivo, rabbit
[6] = test system: Influenza, Ann Arbor virus; test: Influenza Ann Arbor in mice, oral; schedule by table; late read day 5 (Tables 15, 25, 29, 30), 6 (18, 20, 22, 23, 26, 27, 28, 54), 7 (14, 19, 21, 24, 53, 56), 8 (16, 17, 51), 9 (11, 55); assay type: in vivo, mouse
[7] = test system: Influenza PR 8 virus; test: Influenza PR 8 in mice, intraperitoneal (Table 47); assay type: in vivo, mouse
[8] = test system: Vaccinia IHD virus; assay type: in vivo, mouse
[9] = test system: viral infections; test: Antiviral screening in animals, general statements; settings: mouse, in vivo
[10] = test system: Mengo virus; test: Mengo virus in mice, oral; assay type: in vivo, mouse
Text: The results are illustrated in Table 43.

[11] = test system: Herpes virus; test: Herpes virus in chicken eggs, single dose 24 hours pre-infection; assay type: in vivo, chick embryo
[12] = test system: Neurovaccinia virus; test: Neurovaccinia in mice; settings: single dose level, three instances

`NNC(N)=S` [Thiosemicarbazide, thiosemicarbazide] was tested, and the “effect on pox formation on the membrane” value [1] was “No effect”, the “No. animals surviving after 6-10 days” value ([2]; total dose 5 μg) was 3 and the “No. animals surviving after 6-10 days” value ([2]; total dose .005 μg) was 3. For the same compound, the “No. animals surviving when 100% (or given fraction) of controls are dead” value ([2]; total dose .005 μg) was 3, the Survivors ([2]; total dose .005 μg) was 3 and the “No. animals surviving when 100% (or given fraction) of controls are dead” value ([2]; total dose .5 μg) was 0. The Survivors ([2]; total dose .5 μg) was 0, the “No. animals surviving after 6-8 days” value ([3]; total dose 5 μg) was 3 and the Survivors ([3]; total dose 5 μg) was 3. For the same compound, the Survivors ([3]; total dose .0005 μg) was 0, the Survivors ([3]; total dose .005 μg) was 0 and the activity in words ([4]; mouse, in vivo) was “quite significant protection”. The “No. animals surviving when 100% (or given fraction) of controls are dead” value ([4]; total dose .000005 μg) was 0, the Survivors ([4]; total dose .000005 μg) was 0 and the “No. animals surviving after 6-9 days” value ([4]; total dose .00005 μg) was 6. The “No. animals surviving when 100% (or given fraction) of controls are dead” value ([4]; total dose .00005 μg) was 3, the Survivors ([4]; total dose .00005 μg) was 3 and the “No. animals surviving after 6-9 days” value ([4]; total dose .005 μg) was 5 and 3 and 6. The “No. animals surviving after 6-9 days” value ([4]; total dose .5 μg) was 3, the “approximate percentage confluency of the pox” value ([5]; 0.0000025 μg/kg, Test 2) was 85% and the “approximate percentage confluency of the pox” value ([5]; 0.000025 μg/kg, Test 2) was 25%. The “approximate percentage confluency of the pox” value ([5]; 0.00025 μg/kg, Test 2) was 40%, the “approximate percentage confluency of the pox” value ([5]; 0.0025 μg/kg, Duplicate Experiments) was 75% and 60% and the “approximate percentage confluency of the pox” value ([5]; 0.0025 μg/kg, Test 1) was 2%. The “approximate percentage confluency of the pox” value ([5]; 0.0025 μg/kg, Test 2) was 80%, the “approximate percentage confluency of the pox” value ([5]; 0.0025 μg/kg, Test 3) was 85% and the “approximate percentage confluency of the pox” value ([5]; 0.025 μg/kg, Duplicate Experiments) was 75% and 80%. For the same compound, the “approximate percentage confluency of the pox” value ([5]; 0.025 μg/kg, Test 1) was 5%, the “approximate percentage confluency of the pox” value ([5]; 0.025 μg/kg, Test 2) was 5% and the “approximate percentage confluency of the pox” value ([5]; 0.025 μg/kg, Test 3) was 75% and 90%. The “approximate percentage confluency of the pox” value ([5]; 0.25 μg/kg, Test 1) was 10%, the “approximate percentage confluency of the pox” value ([5]; 0.25 μg/kg, Test 2) was 10% and the “approximate percentage confluency of the pox” value ([5]; 0.25 μg/kg, Test 3) was 30% and 40%. For the same compound, the “approximate percentage confluency of the pox” value ([5]; 2.5 μg/kg, Duplicate Experiments) was 30% and 20%, the “approximate percentage confluency of the pox” value ([5]; 2.5 μg/kg, Test 1) was 50% and the “approximate percentage confluency of the pox” value ([5]; 2.5 μg/kg, Test 2) was 80%. For the same compound, the “approximate percentage confluency of the pox” value ([5]; 2.5 μg/kg, Test 3) was 30% and 20%, the “approximate percentage confluency of the pox” value ([5]; 25 μg/kg, Test 1) was 80% and the “approximate percentage confluency of the pox” value ([5]; 25 μg/kg, Test 2) was 10%. For the same compound, the “approximate percentage confluency of the pox” value ([5]; 250 μg/kg, Test 1) was 80%, the “significance (T test)” value ([5]; dose 0.25 μg/kg) was “< .01” and the “significance (T test)” value ([5]; dose 2.5 μg/kg) was “< .01”. For the same compound, the “effect on pox formation” value ([5]; rabbit, in vivo) was “highly significant and reproducible protective effects”, the “No. animals surviving after 5-9 days” value ([6]; total dose .05 μg) was 5 and the “No. animals surviving after 5-9 days” value ([6]; total dose .5 μg) was 3. For the same compound, the Survivors ([6]; total dose .5 μg) was 0, the “No. animals surviving after 5-9 days” value ([6]; total dose .5 μg, listed as thiosemicarbazide) was 7 and 6 and the Survivors ([7]; total dose 5 μg) was 0. It also gave a Survivors ([7]; total dose .005 μg) of 0, a Survivors ([7]; total dose .05 μg) of 0 and a Survivors ([7]; total dose .5 μg) of 0. For the same compound, the “Statistical Significance of Tail Lesions” value ([8]; 10 ng, day 12) was “< .05”, the “Statistical Significance of Tail Lesions” value ([8]; 10 ng, day 14) was “< .05” and the “Statistical Significance of Tail Lesions” value ([8]; 10 ng, day 17) was “< .05”. For the same compound, the “Statistical Significance of Tail Lesions” value ([8]; 10 ng, day 21) was “< .05”, the “Statistical Significance of Tail Lesions” value ([8]; 1 μg, day 5) was “< .01” and the “Statistical Significance of Tail Lesions” value ([8]; 1 μg, day 6) was “< .01”. The “Statistical Significance of Tail Lesions” value ([8]; 1 μg, day 7) was “< .01”, the “Statistical Significance of Tail Lesions” value ([8]; 1 μg, day 8) was “< .01” and the “Statistical Significance of Tail Lesions” value ([8]; 1 μg, day 10) was “< .01”. For the same compound, the “Statistical Significance of Tail Lesions” value ([8]; 1 μg, day 11) was “< .01”, the “Statistical Significance of Tail Lesions” value ([8]; 1 μg, day 12) was “< .01” and the “Statistical Significance of Tail Lesions” value ([8]; 1 μg, day 14) was “< .01”. The “Statistical Significance of Tail Lesions” value ([8]; 1 μg, day 17) was “< .01”, the “Statistical Significance of Tail Lesions” value ([8]; 1 μg, day 21) was “< .01” and the “Statistical Significance of Tail Lesions” value ([8]; 10 [μg], day 6) was “< .01”. The “Statistical Significance of Tail Lesions” value ([8]; 10 [μg], day 10) was “< .05”, the “Statistical Significance of Tail Lesions” value ([8]; 10 [μg], day 11) was “< .01” and the “Statistical Significance of Tail Lesions” value ([8]; 10 [μg], day 12) was “< .01”. For the same compound, the “Statistical Significance of Tail Lesions” value ([8]; 10 [μg], day 14) was “< .01”, the “Statistical Significance of Tail Lesions” value ([8]; 10 [μg], day 17) was “< .01” and the “Statistical Significance of Tail Lesions” value ([8]; 10 [μg], day 21) was “< .01”. The “Statistical Significance of Tail Lesions” value ([8]; 100 [ng], day 8) was “< .05”, the “Statistical Significance of Tail Lesions” value ([8]; 100 [ng], day 10) was “< .01” and the “Statistical Significance of Tail Lesions” value ([8]; 100 [ng], day 11) was “< .01”. The “Statistical Significance of Tail Lesions” value ([8]; 100 [ng], day 12) was “< .01”, the “Statistical Significance of Tail Lesions” value ([8]; 100 [ng], day 14) was “< .01” and the “Statistical Significance of Tail Lesions” value ([8]; 100 [ng], day 17) was “< .01”. The “Statistical Significance of Tail Lesions” value ([8]; 100 [ng], day 21) was “< .01”, the activity in words [9] was “active” and the Survivors ([10]; total dose .0000005 μg) was 0. For the same compound, the “No. animals surviving after 6 days” value ([10]; total dose .000005 μg) was 2, the “No. animals surviving after 6 days” value ([10]; total dose .00005 μg) was 5 and the Survivors ([10]; total dose .0005 μg) was 0. For the same compound, the Survivors ([10]; total dose .005 μg) was 0, the “Deaths on day 1” value ([11]; 2 μg) was 3 and the “Deaths on day 3” value ([11]; 2 μg) was 5. The “Deaths on day 4” value ([11]; 2 μg) was 3, the “No. dying 5-22 day” value ([11]; 2 μg) was 0 and the “No. living longer than controls” value ([11]; 2 μg) was 0. The “Total deaths, 4th day” value ([11]; 2 μg) was 12, the “Deaths on day 2” value ([11]; 20 μg) was 4 and the “Deaths on day 3” value ([11]; 20 μg) was 6. For the same compound, the “No. dying 5-22 day” value ([11]; 20 μg) was 0, the “No. living longer than controls” value ([11]; 20 μg) was 0 and the “Total deaths, 4th day” value ([11]; 20 μg) was 12. The “Deaths on day 1” value ([11]; .00005 μg) was 2, the “Deaths on day 2” value ([11]; .00005 μg) was 5 and the “Deaths on day 3” value ([11]; .00005 μg) was 2. The “No. dying 5-22 day” value ([11]; .00005 μg) was 0, the “Total deaths, 4th day” value ([11]; .00005 μg) was 10 and the “Deaths on day 1” value ([11]; .0005 μg) was 2. For the same compound, the “Deaths on day 2” value ([11]; .0005 μg) was 3, the “Deaths on day 3” value ([11]; .0005 μg) was 2 and the “Deaths on day 4” value ([11]; .0005 μg) was 3. The “No. dying 5-22 day” value ([11]; .0005 μg) was 0, the “Total deaths, 4th day” value ([11]; .0005 μg) was 10 and the “Deaths on day 1” value ([11]; .005 μg) was 4. The “Deaths on day 2” value ([11]; .005 μg) was 3, the “Deaths on day 3” value ([11]; .005 μg) was 3 and the “No. living longer than controls” value ([11]; .005 μg) was 2. For the same compound, the “Total deaths, 4th day” value ([11]; .005 μg) was 10, the “Deaths on day 2” value ([11]; .05 μg) was 3 and the “Deaths on day 3” value ([11]; .05 μg) was 5. For the same compound, the “No. dying 5-22 day” value ([11]; .05 μg) was 0, the “Total deaths, 4th day” value ([11]; .05 μg) was 9 and the “Deaths on day 1” value ([11]; .5 μg) was 3. For the same compound, the “Deaths on day 2” value ([11]; .5 μg) was 4, the “Deaths on day 3” value ([11]; .5 μg) was 2 and the “Deaths on day 4” value ([11]; .5 μg) was 2. The “No. dying 5-22 day” value ([11]; .5 μg) was 0, the “Total deaths, 4th day” value ([11]; .5 μg) was 11 and the “Total no. living longer than controls” value ([11]; all doses) was 7. The surviving animals [12] was “one”.
